Data reported in ChEMBL document CHEMBL4396901, “Discovery of Potent and Noncovalent Reversible EGFR Kinase Inhibitors of EGFRL858R/T790M/C797S” (ACS Med Chem Lett, 2019).
Calls of active or inactive are those of the source. The calls are words filed in the database; no cut-off is given here.

Assays:
[1] = system: Epidermal growth factor receptor (Homo sapiens), P00533 [L858R,T790M,C797S]; test: (§1) Inhibition of recombinant human C-terminal His-tagged/N-terminal GST-tagged EGFR (668 to 1210 residues) T790M/L858R/C797S mutant expressed in baculovirus expression system using poly (Glu,Tyr) 4:1 as substrate incubated for 1 hr in presence of ATP by ELISA
Epidermal growth factor receptor (Homo sapiens), P00533 [L858R,T790M,C797S], sequence (P00533 whole entry T790M/C797S/L858R, the tested form may be a part): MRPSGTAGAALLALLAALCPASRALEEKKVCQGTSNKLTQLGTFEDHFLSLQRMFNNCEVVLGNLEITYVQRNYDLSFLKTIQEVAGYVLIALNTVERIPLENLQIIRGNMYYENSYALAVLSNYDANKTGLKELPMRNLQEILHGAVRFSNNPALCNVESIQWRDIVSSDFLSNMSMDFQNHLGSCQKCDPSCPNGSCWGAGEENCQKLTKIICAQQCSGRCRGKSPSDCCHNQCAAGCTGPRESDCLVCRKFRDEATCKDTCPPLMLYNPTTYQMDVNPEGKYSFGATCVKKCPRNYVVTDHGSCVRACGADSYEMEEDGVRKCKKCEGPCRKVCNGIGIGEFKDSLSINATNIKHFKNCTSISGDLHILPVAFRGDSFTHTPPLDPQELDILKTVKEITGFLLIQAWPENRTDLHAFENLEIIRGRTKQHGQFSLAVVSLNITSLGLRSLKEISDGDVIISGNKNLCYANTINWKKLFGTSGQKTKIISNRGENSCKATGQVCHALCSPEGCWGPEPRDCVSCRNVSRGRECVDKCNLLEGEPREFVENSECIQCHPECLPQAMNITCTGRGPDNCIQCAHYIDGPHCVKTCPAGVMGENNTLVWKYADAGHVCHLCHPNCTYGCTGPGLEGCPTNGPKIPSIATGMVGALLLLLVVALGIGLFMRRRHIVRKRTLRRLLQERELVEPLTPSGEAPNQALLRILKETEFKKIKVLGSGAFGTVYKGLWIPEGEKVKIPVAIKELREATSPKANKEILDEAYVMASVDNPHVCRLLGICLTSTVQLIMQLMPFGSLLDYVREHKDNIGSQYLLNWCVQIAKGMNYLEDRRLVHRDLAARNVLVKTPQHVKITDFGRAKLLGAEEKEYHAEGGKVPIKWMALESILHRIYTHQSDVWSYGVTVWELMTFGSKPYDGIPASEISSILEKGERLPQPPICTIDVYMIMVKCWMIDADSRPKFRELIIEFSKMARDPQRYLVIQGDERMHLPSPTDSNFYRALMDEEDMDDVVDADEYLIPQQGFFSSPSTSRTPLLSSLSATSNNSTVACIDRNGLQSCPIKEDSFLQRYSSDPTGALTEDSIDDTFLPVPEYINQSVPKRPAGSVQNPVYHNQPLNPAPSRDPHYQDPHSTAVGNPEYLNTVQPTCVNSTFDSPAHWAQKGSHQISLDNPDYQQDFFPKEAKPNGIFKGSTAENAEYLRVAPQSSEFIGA

BaF3 = test: Cytotoxicity against mouse BAF3 cells incubated for 72 hrs by resazurin dye based assay; type: cell-based; details: BaF3, 72 h
[2] = target: Epidermal growth factor receptor (Homo sapiens, UniProt P00533, C797S/L858R/T790M); test: as §1
Epidermal growth factor receptor, sequence (P00533 whole entry T790M/C797S/L858R): as the sequence (P00533 whole entry T790M/C797S/L858R, the tested form may be a part) above

| Compound | inhibition [1] | further results |
| --- | --- | --- |
| COc1cc2c(Nc3cc(NC(=O)c4ccccc4)ccc3F)ncnc2cc1OCC1CCN(C)CC1 | inactive | – |
| O=C(Nc1nccs1)C(c1cc(F)ccc1O)N1Cc2ccccc2C1=O (stereo not given) | – | IC50 (BaF3): > 10000 nM |
| COc1cc2c(Nc3ccc(NC(=O)C(c4ccccc4)C(C)C)cc3F)ncnc2cc1OCC1CCN(C)CC1 (stereo not given) | inactive | – |
| COc1cc2c(Nc3ccc(NC(=O)C(c4ccccc4)N4Cc5ccccc5C4=O)cc3F)ncnc2cc1OCC1CCN(C)CC1 (stereo not given) | – | IC50 [2]: 9.3 nM |
| COc1cc2c(Nc3ccc(NC(=O)C(c4ccccc4)c4ccccc4)cc3F)ncnc2cc1OCC1CCN(C)CC1 | inactive | – |
| COc1cc2c(Nc3cc(NC(=O)Cc4ccccc4)ccc3F)ncnc2cc1OCC1CCN(C)CC1 | inactive | – |
| COc1cc2c(Nc3cc(NC(=O)CC4Cc5ccccc5C4)ccc3F)ncnc2cc1OCC1CCN(C)CC1 | inactive | – |
| COc1cc2c(Nc3ccc(NC(=O)Cc4ccccc4)cc3F)ncnc2cc1OCC1CCN(C)CC1 | inactive | – |
| COc1cc2c(Nc3ccc(NC(=O)C(C)c4ccccc4)cc3F)ncnc2cc1OCC1CCN(C)CC1 (stereo not given) | inactive | – |
| COc1cc2c(Nc3ccc(NC(=O)c4ccccc4)cc3F)ncnc2cc1OCC1CCN(C)CC1 | inactive | – |
